Experiments:
[1] = target: Sigma non-opioid intracellular receptor 1 (Cavia porcellus, UniProt Q60492); assay: Displacement of [3H](+)-pentazocine from sigma 1 receptor in guinea pig brain membranes after 150 mins by liquid scintillation spectrometry; assay type: cell membranes, Membrane
[2] = Displacement of [3H]di-o-tolylguanidine from sigma 2 receptor in rat liver membranes after 120 mins by liquid scintillation spectrometry in presence of (+)-pentazocine; assay type: cell membranes, Membrane
[3] = species: Rattus norvegicus; assay: Displacement of [3H]di-o-tolylguanidine from sigma 2 receptor in rat liver membranes at 1 uM after 120 mins by liquid scintillation spectrometry in presence of (+)-pentazocine; assay type: cell membranes; conditions: Membrane

Sigma non-opioid intracellular receptor 1, sequence (Q60492 whole entry): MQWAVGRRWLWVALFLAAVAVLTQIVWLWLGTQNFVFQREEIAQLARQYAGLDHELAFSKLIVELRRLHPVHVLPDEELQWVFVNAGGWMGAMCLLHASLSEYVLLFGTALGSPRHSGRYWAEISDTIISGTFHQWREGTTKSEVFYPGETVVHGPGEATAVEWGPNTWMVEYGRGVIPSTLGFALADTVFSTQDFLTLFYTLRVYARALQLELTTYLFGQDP

| Compound | Ki [1] | Ki [2] | inhibition [3] |
| --- | --- | --- | --- |
| Cc1ccc(-c2csc(C3(O)CCN(Cc4ccccc4)CC3)n2)cc1 | 3.8 nM | 154 nM |  |
| COC1Cc2c(-c3ccc(C)cc3)csc2C2(CCN(Cc3ccccc3)CC2)O1 (stereo unspecified) |  |  | 34% |
| Cc1ccccc1NC(=N)Nc1ccccc1C [DITOLYLGUANIDINE] |  | 107 nM |  |
| COC1Cc2cc(-c3ccc(C)cc3)sc2C2(CCN(Cc3ccccc3)CC2)O1 (stereo unspecified) |  |  | 44% |
| O=C(CCCN1CCC(O)(c2ccc(Cl)cc2)CC1)c1ccc(F)cc1 [HALOPERIDOL] |  | 22 nM |  |
| OC1(c2nccs2)CCN(Cc2ccccc2)CC1 | 33 nM | 1800 nM |  |
| Cc1ccc(-c2cnc(C3(O)CCN(Cc4ccccc4)CC3)s2)cc1 | 7 nM | 457 nM |  |
| COC1Cc2ccsc2C2(CCN(Cc3ccccc3)CC2)O1 (stereo unspecified) |  |  | 16% |
